{"source": "patent US20090023700A1", "about": "“NEUROPROTECTIVE TREATMENTS” (University of Louisville Research Foundation, priority 2007, published 2009)", "origin": "cited, not measured here", "test_system": "AP1", "details": "macrophages; cited from earlier work"}
{"smiles": "O=C(O)c1ccccn1.OO.OO.[K+].[K+].[O]=[V]", "note": "[bpV(pic), potassium bisperoxo(pyridine-2-carboxylato)oxovanadate(V)]", "values": [{"measurement": "AP1 activation", "result": "does not"}]}
